From patent publication US20250129095A1, “ANNULATED 2-AMINO-3-CYANO THIOPHENES AND DERIVATIVES FOR THE TREATMENT OF CANCER” (Boehringer Ingelheim Int'l GmbH Corp., priority 2021, published 2025)

Columns and labels:
KRAS (G12V)::SOS1 = molecular target: T1, KRAS (G12V)::SOS1 (Homo sapiens, UniProt P01116, C118S/G12V); experiment: KRAS::SOS1 AlphaScreen binding assay, KRAS G12V
T1 construct: KRAS (G12V) 1-169, N-terminal 6His-tag for purification, cleaved off; 6His-tag (N, cleaved yes); TEV cleavage site; made in house
T1 sequence (P01116 1-169 isoform P01116-2 G12V/C118S): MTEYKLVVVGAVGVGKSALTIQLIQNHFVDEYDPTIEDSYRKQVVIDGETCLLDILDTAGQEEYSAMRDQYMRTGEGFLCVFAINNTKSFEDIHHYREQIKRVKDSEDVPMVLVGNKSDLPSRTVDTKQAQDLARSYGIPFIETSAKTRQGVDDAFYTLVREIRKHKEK
Source text: (§1) This assay can be used to examine the potency with which compounds according to the invention binding to (mutated) KRAS inhibit the protein-protein interaction between SOS1 and (mutated) KRAS e.g., KRAS WT, KRAS G12C, KRAS G12D, KRAS G12V, KRAS G13D. […] Low IC50 values in this assay setting are indicative of strong inhibition of protein-protein interaction between SOS1 and KRAS:
(§2) These assays measure the inhibitory effect of compounds on KRAS mutant protein-protein interactions using the Alpha Screen technology by Perkin Elmer
(§3) The following (mutant) enzyme forms of KRAS and interacting proteins are used in these assays at the given concentrations: • KRAS (G12D) 1-169, N-terminal 6His-tag, C-terminal avi-tag (Xtal BioStructures, Inc.); final assay concentration 10 nM and SOS1 564-1049, N-terminal 229 GST-tag, TEV cleavage site (Viva Biotech Ltd); final assay concentration 5 nM; • KRAS (G12C) 1-169, N-terminal 6His-tag for purification, cleaved off, C-terminal avi-tag, biotinylated, mutations: C51S, C80L, C118S (in house); final assay concentration 7.5 nM and SOS1 564-1049, N-terminal 229 GST-tag, TEV cleavage site (Viva Biotech Ltd); final assay concentration 5 nM; • KRAS (G12V) 1-169, N-terminal 6His-tag for purification, cleaved off, C-terminal avi-tag, biotinylated, TEV cleavage site, mutation: C118S, GDP loaded (in house); final assay concentration 10 nM and SOS1 564-1049, N-terminal 229 GST-tag, TEV cleavage site (Viva Biotech Ltd); final assay concentration 10 nM; • KRAS (G13D) 1-169, N-terminal 6His-tag for purification, cleaved off, C-terminal avi-tag, biotinylated, TEV cleavage site, mutation: C118S, GDP loaded (in house); final assay concentration 10 nM and SOS1 564-1049, N-terminal 229 GST-tag, TEV cleavage site (Viva Biotech Ltd); final assay concentration 10 nM; • KRAS (WT) 1-169, N-terminal 6His-tag for purification, cleaved off, C-terminal avi-tag, biotinylated, TEV cleavage site, mutation: C118S, GDP loaded (in house); final assay concentration 10 nM and SOS1 564-1049, N-terminal 229 GST-tag, TEV cleavage site (Viva Biotech Ltd); final assay concentration 10 nM.
(§4) Test compounds dissolved in DMSO are dispensed onto assay plates (Proxiplate 384 PLUS, white, PerkinElmer; 6008289) using an Access Labcyte Workstation with the Labcyte Echo 55×. For the chosen highest assay concentration of 100 μM, 150 nL of compound solution are transferred from a 10 mM DMSO compound stock solution. A series of eleven fivefold dilutions per compound are transferred to the assay plate, compound dilutions are tested in duplicates. DMSO are added as backfill to a total volume of 150 nL.
(§5) The assays run on a fully automated robotic system in a darkened room below 100 Lux. To 150 nl of compound dilution 10 μl of a mix including KRAS mutant protein, SOS1 (final assay concentrations see above) and GDP nucleotide (Sigma G7127; final assay concentration 10 μM) in assay buffer (1×PBS, 0.1% BSA, 0.05% Tween 20) are added into columns 1-24.
(§6) After 30 minutes incubation time 5 μl of Alpha Screen bead mix in assay buffer are added into columns 1-23. Bead mix consists of AlphaLISA Glutathione Acceptor Beads (PerkinElmer, Cat No AL109) and AlphaScreen Streptavidin Donor Beads (PerkinElmer Cat No 6760002) in assay buffer at a final assay concentration of 10 μg/ml each.
(§7) Plates are kept at room temperature in a darkened incubator. After an additional 60 minutes incubation time the signal is measured in a PerkinElmer Envision HTS Multilabel Reader using the AlphaScreen specs from PerkinElmer.
(§8) Each plate contains up to 16 wells of a negative control depending on the dilution procedure (platewise or serial) (DMSO instead of test compound; with KRAS mutant::SOS1 GDP mix and bead mix; column 23) and 16wells of a positive control (DMSO instead of test compound; with KRAS mutant::SOS1 GDP mix w/o bead mix; column 24).
(§9) As internal control known inhibitors of KRAS mutant::SOS1 interaction can be measured on each compound plate. […]

KRAS (WT)::SOS1 = molecular target: T2, KRAS (WT)::SOS1 (Homo sapiens, UniProt P01116, C118S); experiment: KRAS::SOS1 AlphaScreen binding assay, KRAS WT
T2 construct: KRAS (WT) 1-169, N-terminal 6His-tag for purification, cleaved off; 6His-tag (N, cleaved yes); TEV cleavage site; made in house
T2 sequence (P01116 1-169 isoform P01116-2 C118S): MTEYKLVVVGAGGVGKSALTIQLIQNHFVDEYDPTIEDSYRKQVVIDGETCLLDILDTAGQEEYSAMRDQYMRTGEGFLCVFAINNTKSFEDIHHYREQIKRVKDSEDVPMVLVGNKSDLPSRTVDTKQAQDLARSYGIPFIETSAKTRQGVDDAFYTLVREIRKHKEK
Source text: as §1, §2, §3, §4, §5, §6, §7, §8, §9

LOVO cells = experiment: LOVO CTG proliferation assay (120 h) (CRC, G13D); assay type: cell-based; conditions: Homo sapiens
Description: LOVO cells (ATCC CCL-229) are dispensed into 384-well plates, flat and clear bottom (Greiner, PNr. 781091) at a density of 1000 cells per well in 60 μL DMEM (Sigma D6429)+10% Fetal Calf Serum (HyClone, PNr.: SH30084.03) and incubated at 37° C. in a CO2 incubator overnight. The next day, compounds (10 mM stock in DMSO) are added with the ECHO acoustic liquid handler system (Beckman Coulter), including DMSO controls. Plates are incubated for 120 h, and cell viability is measured using CellTiter-Glo luminescent cell viability reagent (Promega product code G7570). Viability (stated as percent of control) is defined as relative luminescence units RLU of each well divided by the RLU of cells in DMS0 controls. IC50 values are determined from viability measurements by non-linear regression using a four-parameter model.

CYP3A4 = molecular target: T3, CYP3A4 (Homo sapiens, UniProt P08684); experiment: Mechanism based inhibition of CYP3A4 assay (MBI 3A4); assay type: in vitro ADME; conditions: human liver microsomes, 25 uM, hydroxy-midazolam formation 30 min vs 0 min preincubation
T3 construct: from tissue; host or cells: human liver microsomes
T3 sequence (P08684 whole entry): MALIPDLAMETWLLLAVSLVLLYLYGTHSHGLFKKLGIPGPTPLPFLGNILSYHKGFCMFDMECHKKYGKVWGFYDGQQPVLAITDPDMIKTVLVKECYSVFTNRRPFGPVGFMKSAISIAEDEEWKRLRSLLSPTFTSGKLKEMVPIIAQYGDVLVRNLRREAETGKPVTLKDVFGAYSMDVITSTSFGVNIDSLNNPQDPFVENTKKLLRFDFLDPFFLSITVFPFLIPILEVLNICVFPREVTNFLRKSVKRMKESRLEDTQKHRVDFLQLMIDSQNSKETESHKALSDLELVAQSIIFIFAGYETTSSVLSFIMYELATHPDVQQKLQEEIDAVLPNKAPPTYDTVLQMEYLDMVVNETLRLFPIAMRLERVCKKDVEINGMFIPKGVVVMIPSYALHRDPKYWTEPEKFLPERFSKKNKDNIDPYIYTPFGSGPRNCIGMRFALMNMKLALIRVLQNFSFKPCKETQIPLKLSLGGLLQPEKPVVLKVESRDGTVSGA
Description: The time dependent inhibition towards CYP3A4 is assayed in human liver microsomes (0.02 mg/mL) with midazolam (15 μM) as a substrate. The test compounds and water control (wells w/o test compound) are preincubated in presence of NADPH (1 mM) with human liver microsomes (0.2 mg/mL) at a concentration of 25 uM for 0 min and 30 min. After preincubation, the incubate is diluted 1:10 and the substrate midazolam is added for the main incubation (15 min). The main incubation is quenched with acetonitrile and the formation of hydroxy-midazolam is quantified via LC/MS-MS. The formation of hydroxy-midazolam from the 30 min preincubation relative to the formation from the 0 min preincubation is used as a readout. Values of less than 100% mean that the substrate midazolam is metabolized to a lower extent upon 30 min preincubation compared to 0 min preincubation. In general low effects upon 30 min preincubation are desired (corresponding to values close to 100%/not different to the values determined with water control).

## C[C@H](Oc1cc(O[C@@H]2CNC2(C)C)nc(-c2noc3c2CCC[C@@]32CCCc3sc(N)c(C#N)c32)n1)[C@@H]1CCCN1C [II-9]
KRAS (G12V)::SOS1
  IC50: 3 nM
KRAS (WT)::SOS1
  IC50: 2 nM
LOVO cells
  IC50: 99 nM
CYP3A4
  MBI 3A4 [%]: 72%

## C[C@H](Oc1cc(Nc2ncco2)nc(-c2noc3c2CCC[C@@]32CCCc3sc(N)c(C#N)c32)n1)[C@@H]1CCCN1C [II-13]
KRAS (G12V)::SOS1
  IC50: 2 nM
KRAS (WT)::SOS1
  IC50: 7 nM
LOVO cells
  IC50: 500 nM
CYP3A4
  MBI 3A4 [%]: 52%

## COc1c(OCC2(N(C)C)COC2)nc(-c2noc3c2CCC[C@@]32CCCc3sc(N)c(C#N)c32)nc1O[C@@H](C)[C@@H]1CCCN1C [II-25]
KRAS (G12V)::SOS1
  IC50: 2 nM
KRAS (WT)::SOS1
  IC50: 4 nM
LOVO cells
  IC50: 35 nM
CYP3A4
  MBI 3A4 [%]: 69%

## C[C@H](Oc1cc(Nc2cnccn2)nc(-c2noc3c2CCC[C@@]32CCCc3sc(N)c(C#N)c32)n1)[C@@H]1CCCN1C [II-14]
KRAS (G12V)::SOS1
  IC50: 3 nM
KRAS (WT)::SOS1
  IC50: 10 nM
LOVO cells
  IC50: 960 nM
CYP3A4
  MBI 3A4 [%]: 67%

## C[C@H](Oc1cc(OCC2(N(C)C)COC2)nc(-c2noc3c2CCC[C@@]32CCCc3sc(N)c(C#N)c32)n1)[C@@H]1CCCN1C [II-22]
KRAS (G12V)::SOS1
  IC50: 2 nM
KRAS (WT)::SOS1
  IC50: 2 nM
LOVO cells
  IC50: 39 nM
CYP3A4
  MBI 3A4 [%]: 78%

## C[C@H](Oc1cc(Nc2ncccn2)nc(-c2noc3c2CCC[C@@]32CCCc3sc(N)c(C#N)c32)n1)[C@@H]1CCCN1C [II-17]
KRAS (G12V)::SOS1
  IC50: 2 nM
KRAS (WT)::SOS1
  IC50: 8 nM
LOVO cells
  IC50: 297 nM
CYP3A4
  MBI 3A4 [%]: 75%
